Literature values, collected in patent US20140080794A1, “Methods and Compositions for the Treatment of Estrogen-Dependent Hyperproliferative Uterine Disorders” (Vivus, Inc., priority 2008, published 2014).

Test system: endometriosis patients

CC(C)(C#N)c1cc(Cn2cncn2)cc(C(C)(C)C#N)c1 [anastrozole, α, α, α′, α′-tetramethyl-5-(1H-1,2,4-triazol-1-ylmethyl)-1,3-benzene-diacetonitrile]
symptoms of endometriosis (1 mg anastrozole and an oral contraceptive (20 μg ethinyl estradiol/1 mg levonorgestrel) per day for six months): symptom improvement
systemic estradiol levels (1 mg anastrozole and an oral contraceptive (20 μg ethinyl estradiol/1 mg levonorgestrel) per day, all patients, by the end of the treatment period): significantly suppressed
